Values of other authors as cited in patent publication US20060004050A1, “Compositions and methods for the prevention or treatment of pain and other nervous system disorders” (priority 2004, published 2006).

Experiments:
[1] = rat
[2] = in vivo
beta-adrenergic = settings: L-form versus D-enantiomer
[3] = system: spinal nerve root action potentials; settings: cats
[4] = system: spinal cord and descending neural pathways; settings: rats
[5] = in vivo; remark: listed apart in the source
[6] = system: calcium current of snail neurons

SMILES: Cc1ccc(C(=O)C(C)CN2CCCCC2)cc1 (single isomer, unassigned; (-)) [(−)-tolperisone]
- pharmacodynamic property of the isomer [1]: vasodilatory activity

SMILES: O=C1CCC(N2C(=O)c3ccccc3C2=O)C(=O)N1 (single isomer, unassigned) [L-enantiomer of thalidomide, thalidomide]
- effect when prescribed for morning sickness during pregnancy [2]: potent teratogen

SMILES: Cc1ccc(C(=O)C(C)CN2CCCCC2)cc1 (single isomer, unassigned; (+)) [(+)-tolperisone]
- pharmacodynamic property of the isomer [1]: more muscle-relaxant properties

SMILES: CC(C)NCC(O)COc1cccc2ccccc12 (centres unmarked) [propranolol]
- potency relative to the D-enantiomer (beta-adrenergic): 100 times

SMILES: O=C1CCC(N2C(=O)c3ccccc3C2=O)C(=O)N1 (single isomer, unassigned) [D-enantiomer of thalidomide, thalidomide]
- effect when prescribed for morning sickness during pregnancy [2]: safe and effective sedative

SMILES: Cc1ccc(C(=O)C(C)CN2CCCCC2)cc1 (racemic) [Tolperisone, 2,4′-dimethyl-3-piperidino-propiophenone]
- effect on ventral nerve root reflexes and dorsal nerve root reflex [3]: dose-dependently inhibit both ventral nerve root reflexes and the dorsal nerve root reflex
- effect on segmental (limb) reflexes [4]: depress segmental (limb) reflexes
- most serious adverse effect [5]: anaphylaxis
- other frequently reported adverse effects [5]: muscle weakness, muscle pain, headache, dizziness, and gastric complaints
- membrane effect (tissue membrane): tissue membrane stabilizing properties
- effect on calcium current [6]: inhibit calcium current dose-dependently
